Source: ChEMBL document CHEMBL4811256, “Synthesis and evaluation of multi-target-directed ligands with BACE-1 inhibitory and Nrf2 agonist activities as potential agents against Alzheimer's disease” (Eur J Med Chem, 2021)
Activity calls are given as the source filed them. No cut-off for these calls is given here.

Tests used:
Beta-secretase 1 = Beta-secretase 1 (Homo sapiens, UniProt P56817); assay: Inhibition of BACE-1 (unknown origin) using Mca-Ser-Glu-Val-Asn-Leu-Asp-Ala-Glu-Phe-Lys-Dnp-OH as substrate preincubated for 30 mins followed by substrate addition and measured after 1 hr by FRET assay
Beta-secretase 1, sequence (P56817 whole entry): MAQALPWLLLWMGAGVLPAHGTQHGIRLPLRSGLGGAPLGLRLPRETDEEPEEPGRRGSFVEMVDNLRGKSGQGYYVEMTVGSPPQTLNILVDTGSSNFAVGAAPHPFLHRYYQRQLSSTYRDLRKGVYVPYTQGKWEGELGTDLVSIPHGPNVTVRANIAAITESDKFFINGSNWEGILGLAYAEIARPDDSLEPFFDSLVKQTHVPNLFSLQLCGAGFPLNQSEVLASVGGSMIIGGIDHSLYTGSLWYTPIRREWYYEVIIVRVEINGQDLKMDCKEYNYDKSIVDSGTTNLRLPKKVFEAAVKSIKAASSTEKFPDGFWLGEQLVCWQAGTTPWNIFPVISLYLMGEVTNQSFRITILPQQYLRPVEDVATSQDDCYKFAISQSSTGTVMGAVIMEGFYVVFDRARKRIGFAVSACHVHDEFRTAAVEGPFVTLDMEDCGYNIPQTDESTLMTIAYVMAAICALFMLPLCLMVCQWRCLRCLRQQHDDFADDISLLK

PC-12 [1] = assay: Cytotoxicity against rat PC-12 cells at 25 uM incubated for 24 hrs by MTT assay; format: cell-based; details: pc-12, 24 h
PC-12 [2] = assay: Neuroprotective activity against H2O2-induced cell damage in rat PC-12 cells assessed as decrease in cell death at 10 uM pretreated for 12 hrs followed by H2O2 challenge by MTT assay; format: functional, cell-based
PC-12 [3] = assay: Cytoprotective activity against H2O2- induced cell death in rat PC-12 cells assessed as increase in viable cells pretreated for 12 hrs followed by H2O2 challenge by MTT assay; format: functional, cell-based; details: dose 2.5-10 µM
PC-12 [4] = assay: Cytoprotective activity against 6-OHDA induced cell death in rat PC-12 cells assessed as decrease in LDH release pretreated for 12 hrs followed by 6-OHDA challenge by LDH assay; format: functional, cell-based; details: dose 2.5-10 µM
PC-12 [5] = assay: Protection against H2O2-induced ROS accumulation in rat PC-12 cells assessed as intracellular ROS level by measuring mean fluorescence intensity pretreated for 12 hrs followed by H2O2 challenge by DCFH-DA staining based flow cytometry; format: functional, cell-based; details: dose 2.5-10 µM
PC-12 [6] = assay: Protection against H2O2-induced mitochondrial dysfunction in rat PC-12 cells assessed as change in mitochondrial membrane potential at 2.5 uM pretreated with compound for 12 hrs followed by H2O2 challenge by JC-1 staining based flow cytometry (reference value: 73 %); format: functional
PC-12 [7] = assay: Protection against H2O2-induced mitochondrial dysfunction in rat PC-12 cells assessed as change in mitochondrial membrane potential at 10 uM pretreated with compound for 12 hrs followed by H2O2 challenge by JC-1 staining based flow cytometry (reference value: 73 %); format: functional
PC-12 [8] = assay: Prevention of H2O2-induced calcium overload in rat PC-12 cells assessed as reduction in intracellular free calcium pretreated with compound for 12 hrs followed by H2O2 challenge by Fluo-3AM based fluorescence assay; format: functional, cell-based; details: dose 2.5-10 µM
PC-12 [9] = assay: Protection against H2O2-induced apoptosis in rat PC-12 cells assessed as viable cells at 2.5 uM pretreated for 12 hrs followed by H2O2 challenge by annexin V FITC/propidium iodide staining based flow cytometry (reference value: 73.3 %); format: functional; details: read-out: Activity
PC-12 [10] = assay: Protection against H2O2-induced apoptosis in rat PC-12 cells assessed as early apoptic cells at 2.5 uM pretreated for 12 hrs followed by H2O2 challenge by annexin V FITC/propidium iodide staining based flow cytometry (reference value: 2.2 %); format: functional
PC-12 [11] = assay: Protection against H2O2-induced apoptosis in rat PC-12 cells assessed as late apoptic cells at 5 uM pretreated for 12 hrs followed by H2O2 challenge by annexin V FITC/propidium iodide staining based flow cytometry (reference value: 20.8 %); format: functional
PC-12 [12] = assay: Protection against H2O2-induced apoptosis in rat PC-12 cells assessed as early apoptic cells at 10 uM pretreated for 12 hrs followed by H2O2 challenge by annexin V FITC/propidium iodide staining based flow cytometry (reference value: 2.2 %); format: functional
PC-12 [13] = assay: Protection against 6-OHDA-induced apoptosis in rat PC-12 cells assessed as late apoptotic cells at 5 uM pretreated for 12 hrs followed by 6-OHDA challenge by annexin V FITC/propidium iodide staining based flow cytometry (reference value: 17.3 %); format: functional
PC-12 [14] = assay: Protection against 6-OHDA-induced apoptosis in rat PC-12 cells assessed as viable cells at 10 uM pretreated for 12 hrs followed by 6-OHDA challenge by annexin V FITC/propidium iodide staining based flow cytometry (reference value: 76.7 %); format: functional; details: read-out: Activity
PC-12 [15] = assay: Protection against 6-OHDA-induced apoptosis in rat PC-12 cells assessed as early apoptotic cells at 10 uM pretreated for 12 hrs followed by 6-OHDA challenge by annexin V FITC/propidium iodide staining based flow cytometry (reference value: 2.4 %); format: functional
PC-12 [16] = assay: Protection against 6-OHDA-induced apoptosis in rat PC-12 cells assessed as late apoptotic cells at 10 uM pretreated for 12 hrs followed by 6-OHDA challenge by annexin V FITC/propidium iodide staining based flow cytometry (reference value: 17.3 %); format: functional
PC-12 [17] = assay: Protection against H2O2-induced apoptosis in rat PC-12 cells assessed as cell rescue pretreated for 12 hrs followed by H2O2 challenge by Hoechst 33342 staining based confocal microscopic analysis; format: functional; details: dose 2.5-10 µM
PC-12 [18] = assay: Cytoprotective activity against 6-OHDA-induced oxidative stress in rat PC-12 cells assessed as decrease in cell death at 10 uM pretreated for 12 hrs followed by 6-OHDA challenge by MTT assay; format: functional, cell-based
PC-12 [19] = assay: Cytoprotective activity against H2O2-induced oxidative stress in rat PC-12 cells assessed as decrease in cell death at 10 uM pretreated with brusatol for 1 hr followed by compound treatment for 12 hrs and subsequent H2O2 challenge by MTT assay; format: functional, cell-based
PC-12 [20] = assay: Activation of Keap1-Nrf2-ARE pathway in rat PC-12 assessed as upregulation of TrxR1 protein expression measured after 12 hrs by Western blot analysis; details: filed as activator, dose 2.5-10 µM
PC-12 [21] = assay: Activation of Keap1-Nrf2-ARE pathway in rat PC-12 assessed as upregulation of GCLM protein expression measured after 12 hrs by Western blot analysis; details: filed as activator, dose 2.5-10 µM
PC-12 [22] = assay: Activation of Keap1-Nrf2-ARE pathway in rat PC-12 assessed as upregulation of HO-1 protein expression at 10 uM measured after 6 to 24 hrs by Western blot analysis; details: filed as activator, time 6-24 hrs
[23] = biological target: T1, Nuclear factor erythroid 2-related factor 2 (Mus musculus) (UniProt Q60795); assay: Activation of Nrf2 in mouse BV-2 cells assessed as upregulation of TrxR1 protein expression after 24 hrs by Western blot analysis; format: cell-based; details: filed as activator, dose 2.5-10 µM
T1 sequence (whole entry): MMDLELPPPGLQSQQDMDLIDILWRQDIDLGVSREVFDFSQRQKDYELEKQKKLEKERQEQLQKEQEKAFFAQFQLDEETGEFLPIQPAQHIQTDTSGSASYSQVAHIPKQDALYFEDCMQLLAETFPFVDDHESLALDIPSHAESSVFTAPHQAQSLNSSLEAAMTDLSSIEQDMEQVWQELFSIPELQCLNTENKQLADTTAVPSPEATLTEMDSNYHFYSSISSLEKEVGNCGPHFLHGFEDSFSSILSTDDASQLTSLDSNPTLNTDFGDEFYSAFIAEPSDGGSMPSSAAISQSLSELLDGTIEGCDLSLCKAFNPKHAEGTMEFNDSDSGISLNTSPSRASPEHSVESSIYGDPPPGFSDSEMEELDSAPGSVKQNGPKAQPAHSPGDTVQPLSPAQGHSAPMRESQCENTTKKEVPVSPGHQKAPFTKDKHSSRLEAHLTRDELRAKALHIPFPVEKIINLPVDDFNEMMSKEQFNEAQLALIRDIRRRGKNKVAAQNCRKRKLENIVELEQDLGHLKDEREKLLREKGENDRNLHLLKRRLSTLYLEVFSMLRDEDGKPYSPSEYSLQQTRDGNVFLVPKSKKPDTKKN

[24] = Binding affinity to N-Acetyl-L-cysteine assessed ascompound-NAC covalent adduct formation measured after 3 hrs by Q-TOF mass spectroscopy

## CN1C(N)=N[C@](C)(c2cc(-n3[se]c4cc(F)ccc4c3=O)ccc2F)CS1(=O)=O
Beta-secretase 1
  IC50: 1.06 µM
PC-12 [1]
  Activity: Non-Toxic
PC-12 [2]
  Activity: Active
PC-12 [3]
  Activity: Dose-Dependent Effect
PC-12 [4]
  Activity: Dose-Dependent Effect
PC-12 [5]
  Activity: Dose-Dependent Effect
PC-12 [6]
  Activity: 75.1%
PC-12 [7]
  Activity: 89.1%
PC-12 [8]
  Activity: Dose-Dependent Effect
PC-12 [9]
  viability at 2.5 µM: 83.6%
PC-12 [10]
  Activity: 2%
PC-12 [11]
  Activity: 8.1%
PC-12 [12]
  Activity: 2.1%
PC-12 [13]
  Activity: 11.8%
PC-12 [14]
  viability at 10 µM: 90.5%
PC-12 [15]
  Activity: 1.4%
PC-12 [16]
  Activity: 6.7%
PC-12 [17]
  Activity: Dose-Dependent Effect
PC-12 [18]
  Activity: Active
PC-12 [19]
  Activity: inactive
PC-12 [20]
  Activity: Active
PC-12 [21]
  Activity: Active
PC-12 [22]
  Activity: Active
[23]
  Activity: Dose-Dependent Effect
[24]
  Activity: Active
